Data as given in patent US20260325533A1, “CDK INHIBITOR COMPOUNDS” (ALEKSIA THERAPEUTICS, INC., priority 2023, published 2026).
Read-outs that look alike come from different tables or passages of the source.

Key:
Assay type in all cases: biochemical
CDK2/CCNE1 = CDK2/CCNE1 (Homo sapiens, UniProt P24941); assay: CDK2 homogeneous time-resolved fluorescence (HTRF) kinase assay; conditions: CDK2/CCNE
Procedure, shortened: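 Compounds were titrated 11-point, half-log from typically 10 μM against 3 nM CDK2/cyclin E1 at 1 mM ATP, with a 20 min enzyme preincubation. Phosphorylation of 50 nM ULight-4E-BP1 peptide over 60 min at 23 °C was detected by europium anti-phospho antibody TR-FRET.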

CDK1/CCNB1 = CDK1/CCNB1 (Homo sapiens, UniProt P06493); assay: CDK1 homogeneous time-resolved fluorescence (HTRF) kinase assay; conditions: >250 nM; CDK1/CCNB; read-out: CDK1/CCNB IC50 >250 nM
Procedure, shortened: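 HTRF assay with 0.5 nM CDK1/CCNB1, 1 mM ATP, 50 nM ULight-eIF4E-BP1 (Thr37/46) peptide; compound preincubated 20 min, reaction 60 min at 23 °C, EDTA stop, Eu-anti-phospho antibody detection. 11-point half-log titration from 10 μM, 1% DMSO; IC50 from 665 nm or 665/615 signal.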

CDK4/CCND3 = CDK4/CCND3 (Homo sapiens, UniProt P11802); assay: CDK4 homogeneous time-resolved fluorescence (HTRF) kinase assay; conditions: CDK4/CCND
Procedure, shortened: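 CDK4/CCND3 at 1.5 nM was preincubated with compound for 20 min at 23 °C, then reacted for 60 min with 1 mM ATP and 50 nM ULight-4E-BP1 (Thr37/46) peptide. The reaction was stopped with EDTA, and phosphorylation was read by HTRF with a Eu-anti-phospho antibody. IC50 values came from 11-point half-log titrations, typically from 10 μM.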

CDK6/CCND1 = CDK6/CCND1 (Homo sapiens, UniProt Q00534); assay: CDK6 homogeneous time-resolved fluorescence (HTRF) kinase assay; conditions: CDK6/CCND, 1 mM ATP
Procedure, shortened: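 Enzyme pre-incubated 20 min at 23 °C with compound, then reacted 60 min at 23 °C with 1 mM ATP and 50 nM ULight-4E-BP1 (Thr37/46) peptide; 1 nM enzyme, 1% DMSO. EDTA-stopped, Eu-anti-phospho antibody TR-FRET read (665 nm or 665/615 ratio); 11-point half-log titration from 10 μM gave IC50.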

[1] = <25 nM, read-out: CDK2/CCNE IC50, <25 nM
[2] = >250 nM, read-out: CDK4/CCND IC50, >250 nM
[3] = >250 nM, read-out: CDK6/CCND IC50, >250 nM
[4] = >250 nM, read-out: CDK2/CCNE IC50, >250 nM
[5] = 25-250 nM, read-out: CDK2/CCNE IC50, 25-250 nM

Sequence of CDK1/CCNB1 (P06493 whole entry): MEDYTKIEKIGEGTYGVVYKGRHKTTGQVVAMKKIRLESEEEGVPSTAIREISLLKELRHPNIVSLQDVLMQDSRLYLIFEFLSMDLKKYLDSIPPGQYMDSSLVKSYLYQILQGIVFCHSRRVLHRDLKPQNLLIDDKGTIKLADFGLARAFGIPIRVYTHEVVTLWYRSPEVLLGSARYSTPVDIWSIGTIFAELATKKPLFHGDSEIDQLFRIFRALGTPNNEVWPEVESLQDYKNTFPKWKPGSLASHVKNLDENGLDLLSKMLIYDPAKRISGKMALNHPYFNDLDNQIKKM
Sequence of CDK1/CCNB1 (P14635 whole entry partner): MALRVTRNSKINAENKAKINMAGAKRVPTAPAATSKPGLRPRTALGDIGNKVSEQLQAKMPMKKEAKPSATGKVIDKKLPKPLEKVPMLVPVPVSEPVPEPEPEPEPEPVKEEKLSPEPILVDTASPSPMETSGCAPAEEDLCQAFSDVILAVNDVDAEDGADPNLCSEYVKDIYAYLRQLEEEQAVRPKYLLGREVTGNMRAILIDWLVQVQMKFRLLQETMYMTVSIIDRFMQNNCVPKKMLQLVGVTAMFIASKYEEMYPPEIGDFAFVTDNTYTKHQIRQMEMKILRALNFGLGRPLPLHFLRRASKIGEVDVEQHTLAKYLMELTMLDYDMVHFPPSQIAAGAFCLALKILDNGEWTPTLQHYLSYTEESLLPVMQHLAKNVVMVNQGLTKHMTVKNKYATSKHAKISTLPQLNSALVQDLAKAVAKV
Sequence of CDK4/CCND3 (P11802 whole entry): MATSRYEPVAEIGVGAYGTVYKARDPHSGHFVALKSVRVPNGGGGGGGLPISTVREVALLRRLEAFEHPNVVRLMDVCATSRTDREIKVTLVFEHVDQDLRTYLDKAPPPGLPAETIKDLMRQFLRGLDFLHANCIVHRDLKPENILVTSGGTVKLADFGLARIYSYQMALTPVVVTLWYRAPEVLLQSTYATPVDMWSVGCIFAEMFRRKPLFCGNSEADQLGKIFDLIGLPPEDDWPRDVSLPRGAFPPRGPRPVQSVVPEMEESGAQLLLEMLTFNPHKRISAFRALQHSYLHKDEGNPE
Sequence of CDK4/CCND3 (P30281 whole entry partner): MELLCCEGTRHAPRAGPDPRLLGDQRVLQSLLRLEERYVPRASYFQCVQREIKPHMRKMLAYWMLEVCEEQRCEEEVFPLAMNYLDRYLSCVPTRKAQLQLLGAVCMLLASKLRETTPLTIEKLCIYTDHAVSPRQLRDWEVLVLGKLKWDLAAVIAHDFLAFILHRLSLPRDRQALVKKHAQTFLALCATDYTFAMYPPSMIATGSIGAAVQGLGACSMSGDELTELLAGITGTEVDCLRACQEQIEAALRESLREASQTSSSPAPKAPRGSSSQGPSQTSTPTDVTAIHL
Sequence of CDK6/CCND1 (Q00534 whole entry): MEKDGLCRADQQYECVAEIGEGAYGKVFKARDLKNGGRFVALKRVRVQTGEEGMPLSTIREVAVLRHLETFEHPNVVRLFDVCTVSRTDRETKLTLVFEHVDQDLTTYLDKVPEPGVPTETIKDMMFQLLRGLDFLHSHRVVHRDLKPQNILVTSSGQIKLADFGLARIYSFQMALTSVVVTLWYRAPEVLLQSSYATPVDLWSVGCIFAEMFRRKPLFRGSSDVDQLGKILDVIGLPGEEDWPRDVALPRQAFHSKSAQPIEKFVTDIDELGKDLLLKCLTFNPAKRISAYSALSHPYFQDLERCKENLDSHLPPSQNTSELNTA
Sequence of CDK6/CCND1 (P24385 whole entry partner): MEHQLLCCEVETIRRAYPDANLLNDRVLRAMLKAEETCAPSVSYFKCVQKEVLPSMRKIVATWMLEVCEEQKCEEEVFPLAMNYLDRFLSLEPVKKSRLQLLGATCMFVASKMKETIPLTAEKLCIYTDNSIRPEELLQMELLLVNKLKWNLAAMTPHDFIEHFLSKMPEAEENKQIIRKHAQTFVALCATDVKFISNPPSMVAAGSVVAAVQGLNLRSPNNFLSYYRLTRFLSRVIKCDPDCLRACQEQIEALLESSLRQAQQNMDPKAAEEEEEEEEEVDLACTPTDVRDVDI

Structure (SMILES)	IC50 (CDK2/CCNE1; [1]) [nM]	IC50 (CDK1/CCNB1) [nM]	IC50 (CDK4/CCND3; [2]) [nM]	IC50 (CDK6/CCND1; [3]) [nM]	IC50 (CDK2/CCNE1; [4]) [nM]	IC50 (CDK2/CCNE1; [5]) [nM]	IC50 (CDK4/CCND3; 25-250 nM, read-out: CDK4/CCND IC50, 25-250 nM) [nM]	IC50 (CDK6/CCND1; 25-250 nM, read-out: CDK6/CCND IC50, 25-250 nM) [nM]
CCOC(=O)c1cn2cc(C#Cc3nccc4cnc(Nc5ccc(S(C)(=O)=O)cc5)cc34)ccc2n1 [Ex 851, ethyl6-((7-((4-(methylsulfonyl)phenyl)amino)-2,6-naphthyridin-1-yl)ethynyl)imidazo[1,2-a]pyridine-2-carboxylate]		> 250	> 250	> 250	> 250			
C[C@@H]1CN(c2cc(Nc3cc4c(C#Cc5ccc(=O)[nH]n5)nccc4cn3)cnc2O)CCN1C [Ex 853, (R)-6-((7-((5-(3,4-dimethylpiperazin-1-yl)-6-hydroxypyridin-3-yl)amino)-2,6-naphthyridin-1-yl)ethynyl)pyridazin-3(2H)-one absolute]		> 250	> 250	> 250		25 to 250		
Cc1c(-c2nccc3cnc(Nc4ccc(S(=O)(=O)Nc5nncn5C)cc4)cc23)ccc2c1cnn2CC(C)(C)O [Ex 855, 4-((5-(1-(2-hydroxy-2-methylpropyl)-4-methyl-1H-indazol-5-yl)-2,6-naphthyridin-3-yl)amino)-N-(4-methyl-4H-1,2,4-triazol-3-yl)benzenesulfonamide]		> 250	> 250	> 250		25 to 250		
Cn1ncc2cc(C#Cc3nccc4cnc(Nc5ccc(S(C)(=O)=O)cc5)cc34)ccc21 [Ex 856, 5-((1-methyl-1H-indazol-5-yl)ethynyl)-N-(4-(methylsulfonyl)phenyl)-2,6-naphthyridin-3-amine]		> 250	> 250	> 250		25 to 250		
Cn1cc2ccc(C#Cc3nccc4cnc(Nc5ccc(S(C)(=O)=O)cc5)cc34)cc2n1 [Ex 859, 5-((2-methyl-2H-indazol-6-yl)ethynyl)-N-(4-(methylsulfonyl)phenyl)-2,6-naphthyridin-3-amine]		> 250	> 250	> 250		25 to 250		
CS(=O)(=O)c1ccc(Nc2cc3c(C#Cc4ccc5c(O)ncnc5c4)nccc3cn2)cc1 [Ex 861, 7-((7-((4-(methylsulfonyl)phenyl)amino)-2,6-naphthyridin-1-yl)ethynyl)quinazolin-4-ol]		> 250	> 250	> 250		25 to 250		
Cc1c(-c2nccc3cnc(Nc4ccc(S(=O)(=O)Nc5nccn5C)cc4)cc23)ccc2c1cnn2CC(C)(C)O [Ex 867, 4-((5-(1-(2-hydroxy-2-methylpropyl)-4-methyl-1H-indazol-5-yl)-2,6-naphthyridin-3-yl)amino)-N-(1-methyl-1H-imidazol-2-yl)benzenesulfonamide]	< 25	> 250					25 to 250	25 to 250
CS(=O)(=O)c1ccc(Nc2cc3c(C#Cc4c(F)cncc4F)nccc3cn2)cc1 [Ex 871, 5-((3,5-difluoropyridin-4-yl)ethynyl)-N-(4-(methylsulfonyl)phenyl)-2,6-naphthyridin-3-amine]		> 250	> 250	> 250		25 to 250		
CS(=O)(=O)c1ccc(Nc2cc3c(C#Cc4cncc(F)c4)nccc3cn2)cc1 [Ex 873, 5-((5-fluoropyridin-3-yl)ethynyl)-N-(4-(methylsulfonyl)phenyl)-2,6-naphthyridin-3-amine]		> 250	> 250	> 250		25 to 250		

Continued, values first:

IC50 (CDK2/CCNE1; [1]) [nM]	IC50 (CDK1/CCNB1) [nM]	IC50 (CDK4/CCND3; [2]) [nM]	IC50 (CDK6/CCND1; [3]) [nM]	IC50 (CDK2/CCNE1; [4]) [nM]	IC50 (CDK2/CCNE1; [5]) [nM]	IC50 (CDK4/CCND3; 25-250 nM, read-out: CDK4/CCND IC50, 25-250 nM) [nM]	IC50 (CDK6/CCND1; 25-250 nM, read-out: CDK6/CCND IC50, 25-250 nM) [nM]	Structure (SMILES)
< 25	> 250	> 250	> 250					Cc1c(-c2nccc3cnc(Nc4ccc(S(=O)(=O)Nc5ncc(N6CCOCC6)cn5)cc4)cc23)ccc2c1cnn2CC(C)(C)O [Ex 850, 4-((5-(1-(2-hydroxy-2-methylpropyl)-4-methyl-1H-indazol-5-yl)-2,6-naphthyridin-3-yl)amino)-N-(5-morpholinopyrimidin-2-yl)benzenesulfonamide]
< 25	> 250	> 250	> 250					CC#Cc1nccc2cnc(Nc3ccc(S(=O)(=O)Nc4nccn4C)cc3)cc12 [Ex 854, N-(1-methyl-1H-imidazol-2-yl)-4-((5-(prop-1-yn-1-yl)-2,6-naphthyridin-3-yl)amino)benzenesulfonamide]
	> 250	> 250	> 250		25 to 250			CS(=O)(=O)c1ccc(Nc2cc3c(C#Cc4ccc5c(c4)OCO5)nccc3cn2)cc1 [Ex 857, 5-(benzo[d][1,3]dioxol-5-ylethynyl)-N-(4-(methylsulfonyl)phenyl)-2,6-naphthyridin-3-amine]
	> 250	> 250	> 250		25 to 250			CSc1ccc(C#Cc2nccc3cnc(Nc4ccc(S(C)(=O)=O)cc4)cc23)cc1 [Ex 858, N-(4-(methylsulfonyl)phenyl)-5-((4-(methylthio)phenyl)ethynyl)-2,6-naphthyridin-3-amine]
	> 250	> 250	> 250	> 250				CS(=O)(=O)c1ccc(Nc2cc3c(C#Cc4cc(F)c5cn[nH]c5c4)nccc3cn2)cc1 [Ex 860, 5-((4-fluoro-1H-indazol-6-yl)ethynyl)-N-(4-(methylsulfonyl)phenyl)-2,6-naphthyridin-3-amine]
	> 250	> 250	> 250		25 to 250			CN1CCN(c2ccc(C#Cc3nccc4cnc(Nc5ccc(S(=O)(=O)Nc6ncccn6)cc5)cc34)cc2)CC1 [Ex 864, 4-((5-((4-(4-methylpiperazin-1-yl)phenyl)ethynyl)-2,6-naphthyridin-3-yl)amino)-N-(pyrimidin-2-yl)benzenesulfonamide]
	> 250	> 250	> 250		25 to 250			C[C@H]1CN(c2cc(Nc3cc4c(C#Cc5ccc(=O)[nH]n5)nccc4cn3)cnc2O)CCN1C [Ex 865, (S)-6-((7-((5-(3,4-dimethylpiperazin-1-yl)-6-hydroxypyridin-3-yl)amino)-2,6-naphthyridin-1-yl)ethynyl)pyridazin-3(2H)-one]
	> 250	> 250	> 250		25 to 250			O=c1ccc(C#Cc2nccc3cnc(Nc4cnc(O)c(N5CCN(CCO)CC5)c4)cc23)n[nH]1 [Ex 866, 6-((7-((6-hydroxy-5-(4-(2-hydroxyethyl)piperazin-1-yl)pyridin-3-yl)amino)-2,6-naphthyridin-1-yl)ethynyl)pyridazin-3(2H)-one]
< 25	> 250	> 250	> 250					Cc1c(-c2nccc3cnc(Nc4ccc(S(=O)(=O)Nc5nc(F)cc(F)n5)cc4)cc23)ccc2c1cnn2CC(C)(C)O [Ex 868, N-(4,6-difluoropyrimidin-2-yl)-4-((5-(1-(2-hydroxy-2-methylpropyl)-4-methyl-1H-indazol-5-yl)-2,6-naphthyridin-3-yl)amino)benzenesulfonamide]
	> 250	> 250	> 250		25 to 250			CCOc1ccc(C#Cc2nccc3cnc(Nc4ccc(S(C)(=O)=O)cc4)cc23)cn1 [Ex 869, 5-((6-ethoxypyridin-3-yl)ethynyl)-N-(4-(methylsulfonyl)phenyl)-2,6-naphthyridin-3-amine]
	> 250	> 250	> 250	> 250				CS(=O)(=O)c1ccc(Nc2cc3c(C#Cc4ccc(C(F)(F)F)nc4)nccc3cn2)cc1 [Ex 870, N-(4-(methylsulfonyl)phenyl)-5-((6-(trifluoromethyl)pyridin-3-yl)ethynyl)-2,6-naphthyridin-3-amine]
	> 250	> 250	> 250		25 to 250			CS(=O)(=O)c1ccc(Nc2cc3c(C#Cc4cc(F)ncc4F)nccc3cn2)cc1 [Ex 872, 5-((2,5-difluoropyridin-4-yl)ethynyl)-N-(4-(methylsulfonyl)phenyl)-2,6-naphthyridin-3-amine]
	> 250	> 250	> 250		25 to 250			CS(=O)(=O)c1ccc(Nc2cc3c(C#Cc4ccc(F)nc4)nccc3cn2)cc1 [Ex 874, 5-((6-fluoropyridin-3-yl)ethynyl)-N-(4-(methylsulfonyl)phenyl)-2,6-naphthyridin-3-amine]
